The text below walks through data of patent US4616020A, “Medicaments, vicinal dihydroxyalkylxanthines contained therein, processes for the preparation of these xanthine compounds and intermediate products suitable for these” (Hoechst Aktiengesellschaft, priority 1981, dated 1986).

The subject of data set [1] is serotonine-induced bronchospasm. The experiment in a line: Bronchospasmolytic activity (Konzett-Rossler): inhibition of serotonine-induced bronchospasm in guinea-pigs. Type of data set: in vivo. As to conditions: Cavia porcellus, guinea-pig, urethane anaesthesia, read-out: Bronchospasmolytic effect (ED50) compared to serotonine. Here is the method:
(§1) The test substances were administered in aqueous solution either intravenously (i.v.) or intraduodenally (i.d.). The ED50 values, which represent that dose in mg/kg at which the experimentally produced spasm is decreased by one half compared to that in untreated animals, were determined graphically from the dose-activity curves.

Data set [2] has as its system histamine-induced bronchospasm. The experiment in a line: Bronchospasmolytic activity (Konzett-Rossler): inhibition of histamine-induced bronchospasm in guinea-pigs. In kind it is in vivo. The conditions noted are these: Cavia porcellus, guinea-pig, urethane anaesthesia, read-out: Bronchospasmolytic effect (ED50) compared to histamine. Here is the method: as §1
The nature of data set [3]: Acute toxicity, mortality within 7 days among NMRI mice after single administration. The conditions noted are these: in vivo, mouse. From the text:
(§2) Determination of the LD50 values was by the standard method of the mortality occurring within 7 days among NMRI mice after a single intravenous (i.v.), intraperitoneal (i.p.) or oral (p.o.) administration.
*determined by the method of Litchfield and Wilcoxon (J. Pharmacol. exp.

The nature of data set [4]: Ratio of LD50 to ED50. Type of data set: in vivo, mouse (LD50); guinea-pigs (ED50). The method, then:
as §1, §2

Data set [5] has as its system bronchospasm induced with bradykinin. The experiment in a line: Inhibitory effect on bronchospasm induced in guinea-pigs with bradykinin. Type of data set: in vivo. As to conditions: for ED50: Cavia porcellus, read-out: ED50, bronchospasm induced with bradykinin. The text has this: Since it is regarded as proven that, apart from the biogenic amines, acetylcholine, histamine and serotonine, listed in Table 4, bradykinin also plays an important part as a mediator substance in the provocation of asthma attacks, the inhibitory effect on the bronchospasm induced in guinea-pigs with bradykinin was investigated.

The test system of data set [6] is acetylcholine-induced bronchospasm. The experiment in a line: Bronchospasmolytic activity (Konzett-Rossler): inhibition of acetylcholine-induced bronchospasm in guinea-pigs. Type of data set: in vivo. As to conditions: Cavia porcellus, guinea-pig, urethane anaesthesia, read-out: Bronchospasmolytic effect (ED50) compared to acetylcholine. The method, then: as §1
Data set [7] deals with central nervous system. Set-up: species or system mice. As to conditions: mouse, in vivo, po. The method, then: In contrast, the compounds of the formula I according to the invention have no component stimulating the central nervous system, but, on the contrary, exert a slight depressant effect on the central nervous system which is assessed to be particularly advantageous from the therapeutic point of view. Thus, the spontaneous motility of mice, for example, is decreased by 53% for a period of 11 hours after oral administration of 50 mg/kg of the compound from Example 1.

Data set [8] relates to bronchospastic reactions induced with aerosols of acetylcholine, histamine and ascaris extract. The experiment in a line: Pulmonary function test on the anaesthetized dog: inhibition of bronchospastic reactions induced with aerosols of acetylcholine, histamine and ascaris extract. Type of data set: in vivo.
For data set [9] the following is noted: background statement; cited from earlier work.
The conditions of data set [10]: background statement; cited from earlier work. The source holds these as a separate data set.
The mark [11] stands for this setting: LD50 i.v. mouse, ED50 i.v. guinea-pig.
Setting [12] is: LD50 i.p. mouse, ED50 i.v. guinea-pig.

Read-outs that look alike come from different tables or passages of the source.

As for `CCCn1c(=O)c2c(ncn2CCCCC(O)CO)n(CC)c1=O` (stereo not shown) [Example 1, 3-Ethyl-7-(5,6-dihydroxyhexyl)-1-propylxanthine], the 50% effective dose (ED50) in data set [1] (iv) is 0.3 mg/kg; in data set [1] (i.d. (intraduodenal)) it was 15 mg/kg; in data set [2] (iv), 0.2 mg/kg; in data set [2] (i.d. (intraduodenal)), 25 mg/kg; in [5] (iv, guinea-pigs), 1 to 3 mg/kg; in [5] (i.d., guinea-pigs), 4 to 6.3 mg/kg. The median effective dose (ED50) in data set [6] (iv) stood at 2 mg/kg; in data set [6] (i.d. (intraduodenal)), 6.3 mg/kg. In addition, the LD50 at 168 h in [3] (iv) was found to be 254 mg/kg; in data set [3] (po), 1450 mg/kg. Also, the “ratio of LD50 to ED50 (head is drawing 107)” value (shortened to “ratio of LD50 to ED50”) is reported as 305 in data set [4] (setting [11]) and 94 in data set [4] (LD50 p.o. mouse, ED50 i.d. guinea-pig). Moreover, the “times more effective than theophylline-ethylenediamine, bradykinin bronchospasm” value in data set [5] (i.d.) was “about 6 times”; in data set [5] (i.v.) it was “about 3 times”. In data set [7] (50 mg/kg), the “decrease in spontaneous motility” value is listed as 53%. In addition, in data set [8] (12 mg/kg i.v.), the “inhibitory effect on bronchospastic reactions” value was “significant inhibitory effect”.
On to `CCn1c(=O)n(C)c(=O)c2c1ncn2CCCCC(O)CO` (stereo not shown) [Example 24], for which the figures for the ED50 in [1] (iv), in data set [2] (iv) and in data set [6] (iv) were 10 mg/kg, 2 mg/kg and 6.5 mg/kg, respectively. This compound returned a median lethal dose (LD50) at 168 h in [3] (iv) of 300 mg/kg. For the same compound, the “ratio of LD50 to ED50” value in data set [4] (setting [11]) came to 49.
For `CCn1c(=O)c2c(ncn2CC)n(CCCCC(O)CO)c1=O` (stereo not shown) [Example 8, 1,7-Diethyl-3-(5,6-dihydroxyhexyl)xanthine], in that order: 2 mg/kg, 6.5 mg/kg, 6.5 mg/kg, greater than 300 mg/kg and greater than 60.
In the case of `Cn1c(=O)c2[nH]cnc2n(C)c1=O` [theophylline, 1,3-dimethylxanthine], in data set [9], the therapeutic range entry was “very narrow therapeutic range”. Further, the “effect on bronchospastic reactions” value in data set [8] (doses up to 20 mg/kg i.v.) is “no effect”. Besides, the water solubility entry in data set [10] is “lack of water solubility”.
As for `CC(C)CCn1c(=O)c2c(ncn2CCCCC(O)CO)n(C)c1=O` (stereo not shown) [Example 22], the ED50 was found to be 6.5 mg/kg in [1] (iv), 3 mg/kg in data set [2] (iv) and 1 mg/kg in [6] (iv). In addition, in [3] (iv), the 50% lethal dose (LD50) at 168 h stood at 167 mg/kg. For the same compound, the “ratio of LD50 to ED50” value in data set [4] (setting [11]) was 48.
As for `Cn1c(=O)c2[nH]cnc2n(C)c1=O.NCCN` [Theophylline-ethylenediamine, theophylline-ethylenediamine, reference compound], the median effective dose (ED50) in data set [1] (iv) was 7.3 mg/kg; in data set [2] (iv), 5.6 mg/kg; in data set [5] (iv) it was 3 to 10 mg/kg; in data set [5], 25 to 40 mg/kg; in data set [6] (iv), 8.3 mg/kg. Besides, the therapeutic range entry in [9] was “not associated with a significant increase in the therapeutic range”. Also, the median lethal dose (LD50) at 168 h was 195 mg/kg in data set [3] (iv) and 550 mg/kg in data set [3] (po). Besides, the “increase in spontaneous motility” value in [7] (30 mg/kg) stood at 186%.
Regarding `CCCn1c(=O)c2c(ncn2CCCC(O)C(C)O)n(CC)c1=O` (stereo not shown) [Example 33], the ED50 in data set [1] (iv) is 2 mg/kg; in [2] (iv), 3 mg/kg; in data set [6] (iv) it was 6 mg/kg. For the same compound, in data set [3] (iv), the median lethal dose (LD50) at 168 h is greater than 200 mg/kg. The “ratio of LD50 to ED50” value in data set [4] (setting [11]) is greater than 55.
For `CCCn1c(=O)c2c(ncn2CCCCC(O)CO)n(C)c1=O` (stereo not shown) [Example 18], in that order: 6.5 mg/kg, 6.5 mg/kg, 6.5 mg/kg, 300 mg/kg and 46.
For `CCn1c(=O)n(C(C)C)c(=O)c2c1ncn2CCCCC(O)CO` (stereo not shown) [Example 25], in that order: 2 mg/kg, 6.5 mg/kg, 2 mg/kg, greater than 400 mg/kg and greater than 114.
With `CCCn1c(=O)c2c(ncn2CCC(O)CO)n(CCC)c1=O` (stereo not shown) [Example 12], the ED50 in data set [1] (iv) is 10 mg/kg; in [2] (iv), 10 mg/kg; in data set [6] (iv) it was 6.5 mg/kg. The compound further registered an LD50 at 168 h in data set [3] (ip) greater than 600 mg/kg. Further, the “ratio of LD50 to ED50” value in [4] (setting [12]) is greater than 68.
On to `CCCn1c(=O)c2c(ncn2CCCCCC(O)CO)n(CC)c1=O` (stereo not shown) [Example 51], for which the ED50 in data set [2] (iv) and in data set [6] (iv) was 2 mg/kg throughout. Also, in data set [3] (iv), the LD50 at 168 h is 300 mg/kg. Further, the “ratio of LD50 to ED50” value in data set [4] (setting [11]) stood at 150.
Regarding `NCCN` [ethylenediamine], the side-effects entry in data set [9] was “deleterious effect on the cardiovascular system”.
With `CCCCCn1c(=O)c2c(ncn2CCCCC(O)CO)n(C)c1=O` (stereo not shown) [Example 21], the ED50 in data set [1] (iv), in data set [2] (iv) and in [6] (iv) was 3 mg/kg throughout. Moreover, in [3] (iv), the 50% lethal dose (LD50) at 168 h came to 155 mg/kg. Moreover, the “ratio of LD50 to ED50” value in data set [4] (setting [11]) is listed as 52.
As to `CCCn1c(=O)n(C)c(=O)c2c1ncn2CCCCC(O)CO` (stereo not shown) [Example 30], the figures for the median effective dose (ED50) in data set [2] (iv) and in data set [6] (iv) were 2 mg/kg and 6.5 mg/kg, respectively. Also, the median lethal dose (LD50) at 168 h in [3] (iv) was determined as 250 mg/kg. Besides, the “ratio of LD50 to ED50” value in [4] (setting [11]) turned out to be 59.
For the compound `CCn1c(=O)c2c(ncn2CCCCC(O)CO)n(CC)c1=O` (stereo not shown) [Example 2, 1,3-Diethyl-7-(5,6-dihydroxyhexyl)xanthine], the ED50 in [1] (iv), in [2] (iv) and in data set [6] (iv) was 2 mg/kg each time. This compound also yielded an LD50 at 168 h in [3] (iv) of 325 mg/kg. For the same compound, in data set [4] (setting [11]), the “ratio of LD50 to ED50” value stood at 163.
Regarding `CCCCCn1c(=O)c2c(ncn2CCCCC(O)CO)n(CC)c1=O` (stereo not shown) [Example 28], the 50% effective dose (ED50) in data set [1] (iv) is 3 mg/kg; in [2] (iv), 3 mg/kg; in [6] (iv) it was 2 mg/kg. Also, the median lethal dose (LD50) at 168 h in [3] (iv) was 200 mg/kg. Further, in data set [4] (setting [11]), the “ratio of LD50 to ED50” value came out at 75.
`CCCn1c(=O)c2c(ncn2CCCC(O)CO)n(CCC)c1=O` (stereo not shown) [Example 13]: the ED50 in data set [2] (iv) and in [6] (iv) was 6.5 mg/kg each time. Further, the median lethal dose (LD50) at 168 h in [3] (ip) was determined as 900 mg/kg. Moreover, in [4] (setting [12]), the “ratio of LD50 to ED50” value amounted to 138.
With `CCCCn1c(=O)c2c(ncn2CCCCC(O)CO)n(CC)c1=O` (stereo not shown) [Example 26], the 50% effective dose (ED50) in data set [1] (iv) came out at 0.6 mg/kg; in data set [2] (iv), 1.6 mg/kg; in [6] (iv) it was 2 mg/kg. In [3] (iv), this compound came in with a 50% lethal dose (LD50) at 168 h of 205 mg/kg. The “ratio of LD50 to ED50” value in data set [4] (setting [11]) turned out to be 146.
For `CCCCn1c(=O)c2c(ncn2CCCCC(O)CO)n(C)c1=O` (stereo not shown) [Example 19], in that order: 3 mg/kg, 2 mg/kg, 2 mg/kg, 147 mg/kg and 63.
With `CCCn1c(=O)n(CCCCC(O)CO)c(=O)c2c1ncn2C` (stereo not shown) [Example 10], the ED50 in [1] (iv), in [2] (iv) and in [6] (iv) was 3 mg/kg in each case. In addition, the LD50 at 168 h in [3] (iv) is 250 mg/kg. For the same compound, the “ratio of LD50 to ED50” value in data set [4] (setting [11]) is reported as 83.
As for `CCCCn1c(=O)n(CCCC(O)CO)c(=O)c2c1ncn2C` (stereo not shown) [Example 7, 3-Butyl-1-(4,5-dihydroxypentyl)-7-methylxanthine], the figures for the ED50 in [2] (iv) and in [6] (iv) were 6.5 mg/kg and 3 mg/kg, respectively. In data set [3] (iv), this compound gave an LD50 at 168 h greater than 200 mg/kg. The “ratio of LD50 to ED50” value in data set [4] (setting [11]) was greater than 42.
Turning to `CCn1c(=O)c2c(ncn2CCCCC(O)CO)n(C)c1=O` (stereo not shown) [Example 17], the figures for the ED50 in data set [1] (iv), in [2] (iv) and in data set [6] (iv) were 6.5 mg/kg, 6.5 mg/kg and 2 mg/kg, respectively. In data set [3] (iv), the LD50 at 168 h was greater than 300 mg/kg. Also, the “ratio of LD50 to ED50” value in data set [4] (setting [11]) is greater than 60.
